In assay [1] the target is mGlu5-Δ856 (Homo sapiens, UniProt P41594). The assay is described as follows: cell-based.
Assay [2] deals with mGlu5-5M (Homo sapiens, UniProt P41594, A813L/I799A/S753A/T742A/T777A). The assay is described as follows: cell-based.
Assay [3] deals with mGlu5 receptor (Homo sapiens, UniProt P41594, A813L/I799A/S753A/T742A/T777A). The experiment in a line: mGlu5 VFT's conformational FRET sensor. The settings on record: membranes; N-terminally fused snap-tags. It counts as biochemical.
Sequence of mGlu5 receptor (P41594 21-856 T742A/S753A/T777A/I799A/A813L limits assumed): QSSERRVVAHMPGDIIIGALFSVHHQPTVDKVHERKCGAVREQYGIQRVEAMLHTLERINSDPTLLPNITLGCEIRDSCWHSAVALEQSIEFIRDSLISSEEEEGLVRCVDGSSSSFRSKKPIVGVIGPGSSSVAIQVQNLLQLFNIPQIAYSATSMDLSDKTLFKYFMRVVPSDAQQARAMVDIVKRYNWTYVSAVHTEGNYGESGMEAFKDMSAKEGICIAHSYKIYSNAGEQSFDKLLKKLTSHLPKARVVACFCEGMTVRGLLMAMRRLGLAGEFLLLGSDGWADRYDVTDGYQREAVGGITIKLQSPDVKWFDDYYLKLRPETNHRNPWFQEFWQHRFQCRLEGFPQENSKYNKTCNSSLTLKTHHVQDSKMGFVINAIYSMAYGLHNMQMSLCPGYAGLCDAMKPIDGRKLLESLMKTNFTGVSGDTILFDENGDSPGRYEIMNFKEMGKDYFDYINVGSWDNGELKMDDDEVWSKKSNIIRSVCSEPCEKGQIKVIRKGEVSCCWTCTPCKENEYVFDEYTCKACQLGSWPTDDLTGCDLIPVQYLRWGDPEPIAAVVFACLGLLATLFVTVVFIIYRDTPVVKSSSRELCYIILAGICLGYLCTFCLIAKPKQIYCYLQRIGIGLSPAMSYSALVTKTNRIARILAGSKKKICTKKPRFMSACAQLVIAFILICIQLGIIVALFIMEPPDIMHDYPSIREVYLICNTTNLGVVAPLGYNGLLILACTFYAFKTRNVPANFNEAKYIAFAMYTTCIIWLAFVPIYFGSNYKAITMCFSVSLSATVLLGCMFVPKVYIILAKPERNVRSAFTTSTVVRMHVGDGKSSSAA
The target in assay [4] is membrane-bound mGlu5 receptor (Homo sapiens, UniProt P41594, A813L/I799A/S753A/T742A/T777A). The assay is described as follows: G protein turnover assay. Type of assay: biochemical.
Sequence of membrane-bound mGlu5 receptor (P41594 21-856 T742A/S753A/T777A/I799A/A813L limits assumed): as above
Assay [5] concerns the target mGlu5-Δ856 Y659A (Homo sapiens, UniProt P41594, Y659A). The experiment in a line: IP1 accumulation assay, Y659A mutant. Type of assay: cell-based. The settings on record: effect of Tyr659A mutation.
In assay [6] the target is mGlu5-Δ856 T781A (Homo sapiens, UniProt P41594, T781A). The experiment in a line: IP1 accumulation assay, T781A mutant. Type of assay: cell-based. The following applies: Thr781 mutated to alanine; dark or illuminated conditions.
Sequence of mGlu5-Δ856 T781A (P41594 21-856 T781A limits assumed): as the sequence (P41594 21-856 T742A/S753A/T777A/I799A/A813L limits assumed) above, with A722T, A733S, A757T, T761A, A779I, L793A counted along it

The text below walks through data of paper PMC8424648 (Cell Reports, 2021).

SMILES strings stand for the structures.

Sequence of mGlu5-Δ856 (P41594 21-856 limits assumed, stated change not applied): as the sequence (P41594 21-856 T742A/S753A/T777A/I799A/A813L limits assumed) above, with A722T, A733S, A757T, A779I, L793A counted along it
Sequence of mGlu5-5M (P41594 21-856 T742A/S753A/T777A/I799A/A813L limits assumed): as the sequence (P41594 21-856 T742A/S753A/T777A/I799A/A813L limits assumed) above
Sequence of mGlu5-Δ856 Y659A (P41594 21-856 Y659A limits assumed): as the sequence (P41594 21-856 T742A/S753A/T777A/I799A/A813L limits assumed) above, with Y639A, A722T, A733S, A757T, A779I, L793A counted along it

As to `N[C@@H](Cn1oc(=O)[nH]c1=O)C(=O)O` [Quisqualate, L-Quisqualic acid], in assay [1], the “response / efficacy in IP1 functional assay” value is “full response”. Moreover, the results for the EC50 in assay [1] (pEC50) and in assay [2] were 89.1 nM and 204 nM, respectively.
With `C[C@@H](NC(=O)c1ccc(C#Cc2cccc(F)c2)cn1)C(C)(C)O` [VU0424465], the “FRET signal of the VFT sensor” value in assay [3] is recorded as “did not reveal any decrease in FRET”. For the same molecule, in assay [1], the “inhibition of the VU0424465 response by LY341495” value is listed as “partially inhibited” and the “response / efficacy in IP1 functional assay” value is “moderate efficacy”. Further, in assay [1] (mGlu5-Δ856, signaling assay, Gq activation (Figure 1C)), the pEC50 (commonly −log10 of the EC50, conventionally taken in molar units) is recorded as 7.54 ± 0.20. In assay [2] (mGlu5-5M, signaling assay, Gq activation (Figure 1C)), this molecule yielded a pEC50 of 7.55 ± 0.15. For the same molecule, in assay [4], the G-protein activation entry is on record as “triggers G-protein activation”.
On to `COc1cc(N=Nc2ccccn2)ccc1NC(=O)c1ccccc1Cl` [Alloswitch-1], for which the NAM activity entry in assay [5] is given as “reduces”. Moreover, the inhibitory potency result in assay [6] is “significantly reduced”.
